≈ marks a conversion by molar mass, not a printed value.

From US20240199677A1, “GLYCOSYLTRANSFERASE INHIBITORS” (CALIFORNIA INSTITUTE OF TECHNOLOGY, priority 2018, published 2024) come the findings set out here.

One data set concerns AsPc-1 cells. Description: Scratch (wound healing) assay, AsPc-1. The settings on record: FIG. 9, versus Gemcitabine. The data set is classed as cell-based.
Another data set relates to HCT 116. Description: Cytotoxicity MTT assay, HCT 116. The settings on record: Homo sapiens, HCT-116, read-out: Cytotoxicity IC50 HCT 116. In kind it is cell-based. Here is the method:
(§1) Selected molecules were tested for cytotoxicity (IC50) in cancer and healthy cells via a MTT colorimetric assay.
(§2) Each cell was cultured in recommended medium by ATCC, and the IC50 data were obtained with each cell line.

Another data set is described as follows: Water solubility. The data set is classed as physicochemical.
Another data set concerns Panc-1 cells. Description: Cell viability assay (FIG. 5), Panc-1. The data set is classed as cell-based. The settings on record: after about 3 days; 0.44 μM, 1.77 μM, and 7.08 μM. The procedure:
The cytotoxic activity of 11 against AsPc-1 and Panc-1 cells was also measured through cell viability assays (FIG. 5). […] Similarly, the percentage of viable Panc-1 cells was near-zero after about 3 days in the presence of 11 (0.44 μM, 1.77 μM, and 7.08 μM).

Another data set relates to AsPc-1. As to the kind of experiment: Cytotoxicity MTT assay, AsPc-1. In kind it is cell-based. The settings on record: Homo sapiens, ASPC1; read-out: Cytotoxicity IC50 AsPc-1. Here is the method: as §1, §2
Data set [1] deals with N-glycosylation of β-catenin. Description: Western blot, N-glycosylation of β-catenin (FIG. 6). The settings on record: concentrations as low as. In kind it is cell-based.
A short description of data set [2]: Cytotoxicity MTT assay, HepG2. The data set is classed as cell-based. To be noted: human.

In the case of `NC[C@H]1O[C@@H](O[C@H]([C@H]2O[C@@H](n3ccc(=O)[nH]c3=O)[C@H](O)[C@@H]2O)[C@H](NCCCC(=O)NCc2ccc(N3CCC(Oc4ccc(C(F)(F)F)cc4)CC3)cc2)C(N)=O)[C@H](O)[C@@H]1O` [Compound 11], the “AsPc-1 cell migration, scratch assay” value with AsPc-1 cells is “less AsPc-1 cell migration than Gemcitabine”. In addition, the values for the IC50 (in the data set with HCT 116; with AsPc-1; in data set [2]) were 3.54 µM, 0.95 µM and over 60 µM, respectively. Further, in “Water solubility” (relative to 10), the “Water solubility, times greater than 10” value is 200 times. Also, the concentration in solution in the data set “Water solubility” (water) (solubility) was 22 mg/mL (≈ 25.4 mM). Further, in the data set on Panc-1 cells, the “Percentage of viable Panc-1 cells” value is reported as “near-zero”. Moreover, the “Lowest concentration inhibiting N-glycosylation of β-catenin” value in data set [1] worked out at 0.39 nM.
